From patent US8889677B2, “Substituted triazoles useful as mGlu5 receptor modulators” (Boehringer Ingellheim International GmbH, priority 2012, dated 2014)

Biological target: T1, human recombinant mGluR5 (Homo sapiens, UniProt P41594)
T1 construct: expressed in transfected cells; host or cells: HEK 293 cell line cultured with tetracycline, hygromycin and geneticin; tetracycline removed 3-7 days before the assay
Assay: positive modulation of mGluR5, calcium based FLIPR assay in HEK 293 cells
Conditions: HEK 293 cell line expressing human recombinant mGluR5; EC50 of the modulation of the glutamate response (glutamate approx. 5% basal stimulation); peak height of Ca release fluorescence signal
Procedure: The positive modulation of mGluR5 is measured in a HEK 293 cell line expressing human recombinant mGluR5 and is detected with calcium based FLIPR assay. The cells are cultured with DMEM supplemented with 10% FCS, 2 μg/mL tetracycline, 100 μg/mL hygromycin and 500 μg/mL gneticin. The cell culture media is exchanged for tetracycline-free cell culture media 3-7 days before the assay. One day before the assay the cell culture medium is exchanged to DMEM without glutamine and phenol red and supplemented with 10% FCS, 100 μg/mL hygromycin and 500 μg/mL geneticin. On the assay day, the medium of the subconfluent cultures is removed and the cells are detached by addition of 2.5 ml EDTA (0.02%) per 175 cm2 culture flask for 1 minute. The cells are resuspend in Ringer solution (140 mM NaCl, 5 mM KCl, 2.5 mM CaCl2, 1.5 mM MgCl2, 5 mM Glucose, 10 mM Hepes; adjusted to pH 7.4 with NaOH), pooled and Ringer solution added to adjust the volume to 50 mL. The cell suspension is centrifuged for […] at 1500 U/min (425 g). The supernatant is removed and the cells washed a second time with 50 ml fresh Ringer solution and centrifuged again as before. The supernatant is again removed and the pellet resuspended in Ringer solution to 1,000,000 cells/ml (1×10^6 cells/mL). The cells are plated onto BD BioCoat Poly-D-Lysine 384 well plates (20.000 cells/well; 20 μl/well). The lid covered plates are then incubated until use at 37° C./10% CO2. For dye loading, 20 μl of Calcium-4 assay kit solution (prepared according to the manufacturer's description in Ringer solution) are added to the cells and the plates are incubated for 80 min 37° C. and then 10 min at room temperature.
Controls, Compound Dilution and Assay Execution:
Each assay plate contained wells with “high” and “low” controls:
Low controls 1% DMSO/ringer solution+basal glutamate activation (defined as 100% CTL).
High controls 10 μM CDPPB+basal glutamate activation (defined as 200% CTL).
Test compounds are dissolved and diluted in DMSO to 100-fold the desired concentrations. In a second step, the compounds are diluted in Ringer solution such that the compounds are 4-fold more concentrated than the desired final assay concentration. The final DMSO concentration was 1%.
20 μl of each compound solution are then transferred to the assay plate and the Ca2+ kinetic is measured to determine any intrinsic compound activity. After 5 min incubation in the FLIPR device, the second stimulation with 20 μl of glutamate in Ringer solution (glutamate concentration adjusted to approximately 5% basal stimulation of the maximal possible glutamate effect) is added and the kinetic Ca2+ response of the wells was measured for the modulation effect.
The peak height of the Ca release related fluorescence signal (9-66) is used for the EC50. The EC50 of the modulation is calculated over a nonlinear regression with GraphPad Prism (Table 1).

T1 sequence (P41594 21-1212): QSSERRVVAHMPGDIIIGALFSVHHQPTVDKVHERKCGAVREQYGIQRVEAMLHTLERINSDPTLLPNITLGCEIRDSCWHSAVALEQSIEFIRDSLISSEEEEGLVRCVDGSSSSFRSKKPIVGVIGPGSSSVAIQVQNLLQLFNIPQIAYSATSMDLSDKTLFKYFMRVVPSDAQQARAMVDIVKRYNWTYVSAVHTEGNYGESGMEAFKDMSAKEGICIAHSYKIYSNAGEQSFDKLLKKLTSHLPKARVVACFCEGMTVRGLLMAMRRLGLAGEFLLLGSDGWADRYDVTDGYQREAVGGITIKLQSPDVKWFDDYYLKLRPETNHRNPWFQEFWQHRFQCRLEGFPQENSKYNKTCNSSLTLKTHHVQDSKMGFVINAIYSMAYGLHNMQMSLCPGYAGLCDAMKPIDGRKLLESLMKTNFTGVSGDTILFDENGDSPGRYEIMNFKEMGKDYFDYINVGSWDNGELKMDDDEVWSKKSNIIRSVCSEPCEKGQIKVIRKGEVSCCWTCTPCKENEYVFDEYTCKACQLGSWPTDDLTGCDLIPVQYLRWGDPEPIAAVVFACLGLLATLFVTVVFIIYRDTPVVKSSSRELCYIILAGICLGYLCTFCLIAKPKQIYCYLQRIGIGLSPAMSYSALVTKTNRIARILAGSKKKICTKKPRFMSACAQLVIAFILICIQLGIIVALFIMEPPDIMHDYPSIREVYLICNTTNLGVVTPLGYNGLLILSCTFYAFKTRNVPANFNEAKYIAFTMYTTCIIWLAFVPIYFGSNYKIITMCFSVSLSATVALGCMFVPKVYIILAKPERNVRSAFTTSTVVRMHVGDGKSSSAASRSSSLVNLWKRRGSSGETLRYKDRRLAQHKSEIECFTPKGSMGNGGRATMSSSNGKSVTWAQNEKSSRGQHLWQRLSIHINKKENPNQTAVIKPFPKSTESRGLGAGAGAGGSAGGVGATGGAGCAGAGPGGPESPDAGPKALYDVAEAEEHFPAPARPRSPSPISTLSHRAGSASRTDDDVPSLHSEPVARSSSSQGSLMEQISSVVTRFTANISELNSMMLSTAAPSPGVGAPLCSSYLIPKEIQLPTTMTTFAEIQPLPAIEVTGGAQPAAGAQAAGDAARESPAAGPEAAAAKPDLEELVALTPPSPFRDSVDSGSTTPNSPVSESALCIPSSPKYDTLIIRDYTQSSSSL

SMILES	EC50
O=C(Cn1nc(-c2ccc(F)cc2)nc1-c1ccc(F)cc1)N1CCN(c2ncccn2)CC1 [Example 07.01.01., 2-(3,5-Bis-(4-fluoro-phenyl)-(1,2,4)triazol-1-yl)-1-(4-pyrimidin-2-yl-piperazin-1-yl)-ethanone]	24 nM
O=C(Cn1nc(-c2ccc(F)cc2)nc1-c1ccc(F)cc1)N1CCN(c2ccccn2)CC1 [Example 07.01.02.]	56 nM
O=C(Cn1nc(-c2ccc(F)cc2)nc1-c1ccc(F)cc1)N1CCN(c2cc(Br)ccn2)CC1 [Example 07.01.03.]	80 nM
O=C(Cn1nc(-c2ccc(F)cc2)nc1-c1ccc(F)cc1)N1CCN(c2cc(F)ccn2)CC1 [Example 07.01.04.]	82 nM
O=C(Cn1nc(-c2ccc(F)cc2)nc1-c1ccc(F)cc1)N1CCN(c2ccnc(F)c2)CC1 [Example 07.01.05.]	399 nM
Cc1cc(-c2nc(-c3ccccc3)n(CC(=O)N3CCN(c4ncccn4)CC3)n2)ccc1Br [Example 07.01.06.]	13 nM
Cc1cc(-c2nc(-c3ccccc3)nn2CC(=O)N2CCN(c3ncccn3)CC2)ccc1Br [Example 07.01.07.]	66 nM
N#Cc1cccnc1N1CCN(C(=O)Cn2nc(-c3ccc(F)cc3)nc2-c2ccc(F)cc2)CC1 [Example 07.02.01., 2-(4-(2-(3,5-Bis-(4-fluoro-phenyl)-(1,2,4)triazol-1-yl)-acetyl)-piperazin-1-yl)-nicotinonitrile]	190 nM
O=C(Cn1nc(-c2ccc(F)cc2)nc1-c1ccc(F)cc1)N1CCN(c2ncccc2C(F)(F)F)CC1 [Example 07.02.02.]	474 nM
COc1cccc(N2CCN(C(=O)Cn3nc(-c4ccc(F)cc4)nc3-c3ccc(F)cc3)CC2)n1 [Example 07.02.03.]	220 nM
Cc1cccnc1N1CCN(C(=O)Cn2nc(-c3ccc(F)cc3)nc2-c2ccc(F)cc2)CC1 [Example 07.02.04.]	1060 nM
Cc1ccnc(N2CCN(C(=O)Cn3nc(-c4ccc(F)cc4)nc3-c3ccc(F)cc3)CC2)c1 [Example 07.02.05.]	44 nM
Cc1ccc(N2CCN(C(=O)Cn3nc(-c4ccc(F)cc4)nc3-c3ccc(F)cc3)CC2)nc1 [Example 07.02.06.]	155 nM
O=C(Cn1nc(-c2ccc(F)cc2)nc1-c1ccc(F)cc1)N1CCN(c2cc(C(F)(F)F)ccn2)CC1 [Example 07.02.07.]	217 nM
N#Cc1ccnc(N2CCN(C(=O)Cn3nc(-c4ccc(F)cc4)nc3-c3ccc(F)cc3)CC2)c1 [Example 07.02.08.]	36 nM
COc1ccc(-c2nc(-c3ccc(OC)cc3)n(CC(=O)N3CCN(c4ncccn4)CC3)n2)cc1 [Example 07.02.09.]	61 nM
COc1ccc(-c2nc(-c3ccc(OC)cc3)n(CC(=O)N3CCN(c4ccccn4)CC3)n2)cc1 [Example 07.02.10.]	83 nM
COc1ccc(-c2nc(-c3ccc(OC)cc3)n(CC(=O)N3CCN(c4ccc(C)cn4)CC3)n2)cc1 [Example 07.02.11.]	375 nM
COc1ccc(-c2nc(-c3ccc(OC)cc3)n(CC(=O)N3CCN(c4ccc(Cl)cn4)CC3)n2)cc1 [Example 07.02.12.]	328 nM
COc1ccc(-c2nc(-c3ccc(OC)cc3)n(CC(=O)N3CCN(c4ccc(C#N)cn4)CC3)n2)cc1 [Example 07.02.13.]	1290 nM
COc1ccc(-c2nc(-c3ccc(OC)cc3)n(CC(=O)N3CCN(c4ccc(C(F)(F)F)cn4)CC3)n2)cc1 [Example 07.02.14.]	1050 nM
COc1ccc(-c2nc(-c3ccc(OC)cc3)n(CC(=O)N3CCN(c4cccc(OC)n4)CC3)n2)cc1 [Example 07.02.15.]	675 nM
COc1ccc(-c2nc(-c3ccc(OC)cc3)n(CC(=O)N3CCN(c4ncccc4C#N)CC3)n2)cc1 [Example 07.02.16.]	266 nM
COc1ccc(-c2nc(-c3ccc(OC)cc3)n(CC(=O)N3CCN(c4ccc(C(N)=O)cn4)CC3)n2)cc1 [Example 07.02.17.]	644 nM
COc1ccc(-c2nc(-c3ccccc3)n(CC(=O)N3CCN(c4ccccn4)CC3)n2)cc1OC [Example 07.02.18.]	227 nM
COc1ccc(-c2nc(-c3ccccc3)n(CC(=O)N3CCN(c4ncccc4C#N)CC3)n2)cc1OC [Example 07.02.19.]	494 nM

SMILES	EC50
COc1ccc(-c2nc(-c3ccccc3)n(CC(=O)N3CCN(c4cc(C)ccn4)CC3)n2)cc1OC [Example 07.02.20.]	162 nM
COc1ccc(-c2nc(-c3ccccc3)n(CC(=O)N3CCN(c4ccc(C)cn4)CC3)n2)cc1OC [Example 07.02.21.]	451 nM
COc1ccc(-c2nc(-c3ccccc3)n(CC(=O)N3CCN(c4ncccc4C(F)(F)F)CC3)n2)cc1OC [Example 07.02.23.]	1910 nM
COc1ccc(-c2nc(C3CCCCC3)n(CC(=O)N3CCN(c4ncccn4)CC3)n2)cc1 [Example 07.02.24.]	229 nM
COc1ccc(-c2nc(C3CCCCC3)n(CC(=O)N3CCN(c4ccccn4)CC3)n2)cc1 [Example 07.02.25.]	424 nM
COc1ccc(-c2nc(C3CCCCC3)n(CC(=O)N3CCN(c4cc(C)ccn4)CC3)n2)cc1 [Example 07.02.26.]	252 nM
O=C(Cn1nc(-c2ccccc2)nc1-c1ccccc1)N1CCN(c2ccccn2)CC1 [Example 07.02.27.]	353 nM
Cc1ccnc(N2CCN(C(=O)Cn3nc(-c4ccccc4)nc3-c3ccccc3)CC2)c1 [Example 07.02.28.]	243 nM
COc1ccnc(N2CCN(C(=O)Cn3nc(-c4ccc(F)cc4)nc3-c3ccc(F)cc3)CC2)c1 [Example 07.03.01., 2-(3,5-Bis-(4-fluoro-phenyl)-(1,2,4)triazol-1-yl)-1-(4-(4-methoxy-pyridin-2-yl)-piperazin-1-yl)-ethanone]	88 nM
CCOC(=O)c1cccc(N2CCN(C(=O)Cn3nc(-c4ccc(F)cc4)nc3-c3ccc(F)cc3)CC2)c1 [Example 07.03.02.]	1280 nM
O=C(Cn1nc(-c2ccc(F)cc2)nc1-c1ccc(F)cc1)N1CCN(c2nccc(C(F)(F)F)n2)CC1 [Example 07.03.03.]	595 nM
O=C(Cn1nc(-c2ccc(F)cc2)nc1-c1ccc(F)cc1)N1CCN(c2ncc(Br)cn2)CC1 [Example 07.03.04.]	50 nM
O=C(Cn1nc(-c2ccc(F)cc2)nc1-c1ccc(F)cc1)N1CCN(c2cccc(F)c2)CC1 [Example 07.03.05.]	469 nM
N#Cc1cccc(N2CCN(C(=O)Cn3nc(-c4ccc(F)cc4)nc3-c3ccc(F)cc3)CC2)c1 [Example 07.03.06.]	350 nM
Cc1cc(C)nc(N2CCN(C(=O)Cn3nc(-c4ccc(F)cc4)nc3-c3ccc(F)cc3)CC2)n1 [Example 07.03.07.]	610 nM
N#Cc1ccnc(N2CCN(C(=O)Cn3nc(-c4ccc(F)cc4)nc3-c3ccc(F)cc3)CC2)n1 [Example 07.03.08.]	124 nM
O=C(Cn1nc(-c2ccc(F)cc2)nc1-c1ccc(F)cc1)N1CCN(c2cc(Cl)ncn2)CC1 [Example 07.03.09.]	121 nM
COc1ccnc(N2CCN(C(=O)Cn3nc(-c4ccc(F)cc4)nc3-c3ccc(F)cc3)CC2)n1 [Example 07.03.10.]	67 nM
CN(C)c1cncc(N2CCN(C(=O)Cn3nc(-c4ccc(F)cc4)nc3-c3ccc(F)cc3)CC2)n1 [Example 07.03.11.]	283 nM
O=C(Cn1nc(-c2ccc(F)cc2)nc1-c1ccc(F)cc1)N1CCN(c2cccnn2)CC1 [Example 07.03.12.]	134 nM
COc1cc(OC)nc(N2CCN(C(=O)Cn3nc(-c4ccc(F)cc4)nc3-c3ccc(F)cc3)CC2)n1 [Example 07.03.13.]	224 nM
O=C(Cn1nc(-c2ccc(F)cc2)nc1-c1ccc(F)cc1)N1CCN(c2ncncn2)CC1 [Example 07.03.14.]	85 nM
Cc1cc(C#N)nc(N2CCN(C(=O)Cn3nc(-c4ccc(F)cc4)nc3-c3ccc(F)cc3)CC2)n1 [Example 07.03.15.]	574 nM
CN(C)c1ccnc(N2CCN(C(=O)Cn3nc(-c4ccc(F)cc4)nc3-c3ccc(F)cc3)CC2)n1 [Example 07.03.16.]	66 nM
CN(C)c1ccnc(N2CCN(C(=O)Cn3nc(-c4ccc(F)cc4)nc3-c3ccc(F)cc3)CC2)c1 [Example 07.03.17.]	601 nM
COc1cncc(N2CCN(C(=O)Cn3nc(-c4ccc(F)cc4)nc3-c3ccc(F)cc3)CC2)n1 [Example 07.03.18.]	179 nM
